Measurements as given in paper PMC11995211, “Design, Synthesis, and Evaluation of a New Fluorescent Ligand for the M2 Muscarinic Acetylcholine Receptor” (ACS Medicinal Chemistry Letters, 2025).

What was measured:
[1] = molecular target: M2R; details: Figure 1, M2R antagonists; published data, reference numbers not given; cited from earlier work
[2] = test system: M1; details: Figure 1; published data, reference numbers not given; cited from earlier work
[3] = test system: M3; details: Figure 1; published data, reference numbers not given; cited from earlier work
[4] = test system: M4; details: Figure 1; published data, reference numbers not given; cited from earlier work
[5] = test system: M5; details: Figure 1; published data, reference numbers not given; cited from earlier work
[6] = literature statement, reference numbers not given; cited from earlier work
[7] = molecular target: T1, hM1R (Homo sapiens, UniProt P11229); test: Radioligand competition binding, [3H]-scopolamine (N-methyl), CHO cell membranes, hM1R; details: mean ± SD, n = 3; membranes from CHO cells transfected with hM1R; read-out: Receptor Ki M1
T1 construct: expressed in transfected cells; host or cells: CHO cell membranes
T1 sequence (P11229 1-460): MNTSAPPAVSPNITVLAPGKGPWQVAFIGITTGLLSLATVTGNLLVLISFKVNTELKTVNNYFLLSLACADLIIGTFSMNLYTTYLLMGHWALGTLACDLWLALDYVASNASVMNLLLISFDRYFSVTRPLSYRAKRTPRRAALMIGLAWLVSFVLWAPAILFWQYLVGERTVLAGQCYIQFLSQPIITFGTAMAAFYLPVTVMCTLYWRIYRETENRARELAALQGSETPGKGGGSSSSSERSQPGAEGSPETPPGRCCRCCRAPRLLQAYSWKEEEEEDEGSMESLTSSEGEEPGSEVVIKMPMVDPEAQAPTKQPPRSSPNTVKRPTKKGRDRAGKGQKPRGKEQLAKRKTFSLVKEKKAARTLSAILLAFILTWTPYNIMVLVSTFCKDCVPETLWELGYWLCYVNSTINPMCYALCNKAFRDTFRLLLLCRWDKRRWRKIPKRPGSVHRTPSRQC

[8] = molecular target: T2, hM4R (Homo sapiens, UniProt P08173); test: Radioligand competition binding, [3H]-scopolamine (N-methyl), CHO cell membranes, hM4R; details: mean ± SD, n = 3; membranes from CHO cells transfected with hM4R; read-out: Receptor Ki M4
T2 construct: expressed in transfected cells; host or cells: CHO cell membranes
T2 sequence (P08173 1-479): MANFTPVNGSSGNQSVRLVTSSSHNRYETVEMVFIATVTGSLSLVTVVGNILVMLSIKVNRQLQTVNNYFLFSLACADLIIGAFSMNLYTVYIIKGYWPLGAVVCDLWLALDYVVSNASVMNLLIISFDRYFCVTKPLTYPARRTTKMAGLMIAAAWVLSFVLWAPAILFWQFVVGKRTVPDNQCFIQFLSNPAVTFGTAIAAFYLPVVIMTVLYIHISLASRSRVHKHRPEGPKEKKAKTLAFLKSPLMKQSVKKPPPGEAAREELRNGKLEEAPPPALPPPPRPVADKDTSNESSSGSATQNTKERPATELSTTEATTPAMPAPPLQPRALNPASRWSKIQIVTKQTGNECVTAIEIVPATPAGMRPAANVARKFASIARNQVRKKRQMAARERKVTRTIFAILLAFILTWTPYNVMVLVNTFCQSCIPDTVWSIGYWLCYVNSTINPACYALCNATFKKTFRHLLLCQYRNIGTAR

[9] = molecular target: T3, M2R (Homo sapiens, UniProt P08172); test: BRET-based TRUPATH GoA activation assay, antagonism of carbachol-induced G protein activation; assay type: cell-based; details: for mode of antagonism of carbachol-induced G protein activation: TRUPATH GoA assay
T3 sequence (P08172 1-466): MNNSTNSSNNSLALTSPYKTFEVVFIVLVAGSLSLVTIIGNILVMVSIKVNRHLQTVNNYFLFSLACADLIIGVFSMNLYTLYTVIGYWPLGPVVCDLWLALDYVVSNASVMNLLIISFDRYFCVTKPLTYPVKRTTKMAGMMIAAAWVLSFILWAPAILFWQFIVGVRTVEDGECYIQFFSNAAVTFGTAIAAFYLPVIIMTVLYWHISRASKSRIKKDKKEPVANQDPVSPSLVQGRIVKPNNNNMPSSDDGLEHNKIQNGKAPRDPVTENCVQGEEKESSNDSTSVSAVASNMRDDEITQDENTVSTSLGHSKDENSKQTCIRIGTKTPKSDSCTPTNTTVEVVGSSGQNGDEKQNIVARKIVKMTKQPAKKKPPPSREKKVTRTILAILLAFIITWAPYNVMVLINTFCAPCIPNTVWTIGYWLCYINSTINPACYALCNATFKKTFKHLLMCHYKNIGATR

[10] = molecular target: T4, hM3R (Homo sapiens, UniProt P20309); test: Radioligand competition binding, [3H]-scopolamine (N-methyl), CHO cell membranes, hM3R; details: mean ± SD, n = 3; membranes from CHO cells transfected with hM3R; read-out: Receptor Ki M3
T4 construct: expressed in transfected cells; host or cells: CHO cell membranes
T4 sequence (P20309 whole entry): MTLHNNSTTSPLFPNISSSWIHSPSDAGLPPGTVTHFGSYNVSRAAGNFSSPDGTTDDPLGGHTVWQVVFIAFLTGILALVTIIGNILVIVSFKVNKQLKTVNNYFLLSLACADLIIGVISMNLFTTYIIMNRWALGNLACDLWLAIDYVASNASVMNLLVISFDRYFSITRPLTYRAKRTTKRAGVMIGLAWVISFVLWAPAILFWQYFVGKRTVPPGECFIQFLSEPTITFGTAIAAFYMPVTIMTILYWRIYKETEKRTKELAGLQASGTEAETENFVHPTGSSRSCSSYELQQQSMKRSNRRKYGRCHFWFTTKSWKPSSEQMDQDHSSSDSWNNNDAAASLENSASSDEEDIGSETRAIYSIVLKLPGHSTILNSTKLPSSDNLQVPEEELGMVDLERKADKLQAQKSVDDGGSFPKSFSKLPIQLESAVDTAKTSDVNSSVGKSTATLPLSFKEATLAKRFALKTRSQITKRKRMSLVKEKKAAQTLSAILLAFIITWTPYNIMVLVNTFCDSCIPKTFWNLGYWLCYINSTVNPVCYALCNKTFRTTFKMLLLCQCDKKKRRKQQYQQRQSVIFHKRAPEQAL

[11] = molecular target: T5, hM5R (Homo sapiens, UniProt P08912); test: Radioligand competition binding, [3H]-scopolamine (N-methyl), CHO cell membranes, hM5R; details: mean ± SD, n = 3; membranes from CHO cells transfected with hM5R; read-out: Receptor Ki M5
T5 construct: expressed in transfected cells; host or cells: CHO cell membranes
T5 sequence (P08912 1-532): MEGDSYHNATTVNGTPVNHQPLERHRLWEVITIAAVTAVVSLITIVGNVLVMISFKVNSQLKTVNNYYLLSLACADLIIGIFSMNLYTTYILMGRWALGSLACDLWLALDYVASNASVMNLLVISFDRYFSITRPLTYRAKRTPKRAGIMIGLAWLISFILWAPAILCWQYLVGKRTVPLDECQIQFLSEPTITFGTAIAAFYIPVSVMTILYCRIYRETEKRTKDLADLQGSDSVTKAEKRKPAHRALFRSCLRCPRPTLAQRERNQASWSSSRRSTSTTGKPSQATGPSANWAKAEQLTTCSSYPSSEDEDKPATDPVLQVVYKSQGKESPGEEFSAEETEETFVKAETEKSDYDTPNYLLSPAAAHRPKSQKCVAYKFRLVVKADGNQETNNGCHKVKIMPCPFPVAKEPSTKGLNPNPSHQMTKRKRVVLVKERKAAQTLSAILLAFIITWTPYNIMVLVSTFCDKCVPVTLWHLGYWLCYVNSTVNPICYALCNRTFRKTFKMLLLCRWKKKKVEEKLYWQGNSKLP

[12] = molecular target: T6, hM2R (Homo sapiens, UniProt P08172); test: Radioligand competition binding, [3H]-scopolamine (N-methyl), CHO cell membranes, hM2R; details: mean ± SD, n = 3; membranes from CHO cells transfected with hM2R; read-out: Receptor Ki M2
T6 construct: expressed in transfected cells; host or cells: CHO cell membranes
T6 sequence (P08172 1-466): T3 sequence (P08172 1-466)

| SMILES | Ki [1] [nM] | M2R selectivity M1/M2 [2] | Ki [7] [nM] | Ki [8] [nM] | mode of antagonism of carbachol-induced G protein activation [9] | Ki [10] [nM] | Ki [11] [nM] | other results |
| --- | --- | --- | --- | --- | --- | --- | --- | --- |
| CCCC(C)(C)C(=O)N(CC)CCCC1CCN(CC(=O)N2c3ccc(Cl)cc3C(=O)Nc3cccnc32)CC1 [Compound 1] | 30.2 | 35 | – | – | – | – | – | – |
| CCN(CC)CC1CCCCN1CC(=O)N1c2ccccc2C(=O)Nc2cccnc21 (stereo not drawn) [Compound 2] | 105 | – | – | – | – | – | – | – |
| Cc1ccccc1C(=O)N1CCC(N2CCC(Cc3ccc(S(=O)(=O)c4ccc5c(c4)OCO5)cc3)CC2)CC1 [Compound 3] | 0.02 | 1400 | – | – | – | – | – | M2R selectivity M3/M2 [3]: 730; M2R selectivity M4/M2 [4]: 37; M2R selectivity M5/M2 [5]: 280; pharmacokinetics [6]: poor |
| Nc1ccccc1C(=O)N1CCC(N2CCC(Cc3ccc(S(=O)(=O)c4cccc(Cl)c4)cc3)CC2)CC1 [Compound 28] | – | – | 425 ± 32 | 9.4 ± 1.1 | competitive antagonists | – | – | oral bioavailability [6]: good |
| NCCOCCOCCNc1ccccc1C(=O)N1CCC(N2CCC(Cc3ccc(S(=O)(=O)c4cccc(Cl)c4)cc3)CC2)CC1 [Compound 30] | – | – | 143 ± 11 | 7.4 ± 0.6 | – | 496 ± 36 | 8.6 ± 0.7 | – |
| NCCOCCOCCC(=O)NCCOCCOCCNc1ccccc1C(=O)N1CCC(N2CCC(Cc3ccc(S(=O)(=O)c4cccc(Cl)c4)cc3)CC2)CC1.O=C(O)C(F)(F)F [Compound 32] | – | – | 113 ± 8 | 6.2 ± 0.9 | competitive antagonists | 373 ± 38 | 8.5 ± 0.9 | Ki [12]: 1.1 ± 0.1 nM; Log(IC50) ± SD (M), carbachol-induced GoA protein activation ([9]; log10 of IC50 (negative values), HEK 293T, compound 20 min, then 10 μM carbachol 15 min, Hill-slope = 1, n = 3): –6.97 ± 0.12 M |
